From patent US20240245682A1, “ALPHA-V-BETA-8 INTEGRIN INHIBITORS AND USES THEREOF” (Pliant Therapeutics, Inc., priority 2022, published 2024)
“And” between values parts separate entries of the source, which are not always exact repeats. Equal entries are not always repeated. “Also recorded” adds a separate entry of the source.

Columns and labels:
[1] = target: human integrin αVβ1 (Homo sapiens, UniProt P05556+P06756); assay: AlphaScreen proximity-based integrin binding assay with TGF-b1 LAP; conditions: values given as ranges
Sequence of human integrin αVβ1 (P06756 31-992 limits assumed): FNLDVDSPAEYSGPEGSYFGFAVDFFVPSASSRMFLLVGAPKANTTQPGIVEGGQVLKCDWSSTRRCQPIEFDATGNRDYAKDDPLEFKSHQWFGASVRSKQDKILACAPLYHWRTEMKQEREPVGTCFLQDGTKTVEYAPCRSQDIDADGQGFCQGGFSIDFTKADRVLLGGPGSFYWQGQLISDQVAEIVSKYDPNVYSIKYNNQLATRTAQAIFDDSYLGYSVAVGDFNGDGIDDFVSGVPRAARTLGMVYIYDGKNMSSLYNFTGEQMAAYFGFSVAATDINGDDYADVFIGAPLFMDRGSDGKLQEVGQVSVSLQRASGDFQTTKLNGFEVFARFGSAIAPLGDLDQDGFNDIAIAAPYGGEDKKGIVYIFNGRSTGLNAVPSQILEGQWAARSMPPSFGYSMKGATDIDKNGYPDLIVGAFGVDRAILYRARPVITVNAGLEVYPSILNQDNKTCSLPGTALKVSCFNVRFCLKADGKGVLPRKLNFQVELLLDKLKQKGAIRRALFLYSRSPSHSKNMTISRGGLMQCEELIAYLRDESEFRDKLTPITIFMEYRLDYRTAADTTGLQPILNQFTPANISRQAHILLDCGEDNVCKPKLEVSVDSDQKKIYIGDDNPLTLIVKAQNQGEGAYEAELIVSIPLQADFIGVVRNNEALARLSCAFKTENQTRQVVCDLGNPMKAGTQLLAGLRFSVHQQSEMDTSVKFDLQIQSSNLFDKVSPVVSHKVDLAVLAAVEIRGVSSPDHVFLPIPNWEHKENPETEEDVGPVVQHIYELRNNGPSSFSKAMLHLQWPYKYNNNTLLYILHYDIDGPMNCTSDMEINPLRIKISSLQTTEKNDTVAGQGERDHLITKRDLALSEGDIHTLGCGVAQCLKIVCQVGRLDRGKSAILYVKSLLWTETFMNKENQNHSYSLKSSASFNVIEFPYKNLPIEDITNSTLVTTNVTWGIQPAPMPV
Sequence of human integrin αVβ1 (P05556 21-728 limits assumed): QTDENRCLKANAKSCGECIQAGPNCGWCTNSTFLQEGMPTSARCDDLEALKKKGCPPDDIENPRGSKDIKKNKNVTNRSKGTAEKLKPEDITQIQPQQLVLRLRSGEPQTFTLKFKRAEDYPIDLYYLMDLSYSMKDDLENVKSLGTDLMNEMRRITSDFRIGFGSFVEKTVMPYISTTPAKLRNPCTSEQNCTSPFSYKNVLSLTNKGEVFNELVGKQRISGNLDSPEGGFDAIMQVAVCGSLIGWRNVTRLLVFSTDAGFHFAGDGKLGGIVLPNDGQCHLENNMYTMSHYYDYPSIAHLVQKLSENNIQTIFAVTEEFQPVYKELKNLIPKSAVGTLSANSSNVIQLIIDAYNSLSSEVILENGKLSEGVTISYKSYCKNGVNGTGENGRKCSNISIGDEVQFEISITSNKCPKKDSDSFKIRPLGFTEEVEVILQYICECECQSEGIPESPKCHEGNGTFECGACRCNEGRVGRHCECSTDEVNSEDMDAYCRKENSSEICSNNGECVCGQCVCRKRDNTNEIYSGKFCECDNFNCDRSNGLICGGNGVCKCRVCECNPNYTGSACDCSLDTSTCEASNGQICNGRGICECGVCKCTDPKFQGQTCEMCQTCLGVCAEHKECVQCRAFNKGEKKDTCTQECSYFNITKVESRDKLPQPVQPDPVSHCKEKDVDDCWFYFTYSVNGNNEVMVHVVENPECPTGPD
Method in brief: (§1)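 Purified human integrin incubated with compound, TGF-b1 LAP, biotinylated anti-LAP antibody and acceptor beads for 2 h, then streptavidin donor beads 30 min, room temperature, in 50 mM Tris-HCl pH 7.5, 0.1% BSA, 1 mM CaCl2/MgCl2. AlphaScreen signal (680 nm excitation, 520-620 nm emission); IC50 by four-parameter fit.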

[2] = target: human integrin αVβ6 (Homo sapiens, UniProt P06756+P18564); assay: as above; conditions: values given as ranges
Sequence of human integrin αVβ6 (P06756 31-992 limits assumed): as the sequence (P06756 31-992 limits assumed) above
Sequence of human integrin αVβ6 (P18564 22-707 limits assumed): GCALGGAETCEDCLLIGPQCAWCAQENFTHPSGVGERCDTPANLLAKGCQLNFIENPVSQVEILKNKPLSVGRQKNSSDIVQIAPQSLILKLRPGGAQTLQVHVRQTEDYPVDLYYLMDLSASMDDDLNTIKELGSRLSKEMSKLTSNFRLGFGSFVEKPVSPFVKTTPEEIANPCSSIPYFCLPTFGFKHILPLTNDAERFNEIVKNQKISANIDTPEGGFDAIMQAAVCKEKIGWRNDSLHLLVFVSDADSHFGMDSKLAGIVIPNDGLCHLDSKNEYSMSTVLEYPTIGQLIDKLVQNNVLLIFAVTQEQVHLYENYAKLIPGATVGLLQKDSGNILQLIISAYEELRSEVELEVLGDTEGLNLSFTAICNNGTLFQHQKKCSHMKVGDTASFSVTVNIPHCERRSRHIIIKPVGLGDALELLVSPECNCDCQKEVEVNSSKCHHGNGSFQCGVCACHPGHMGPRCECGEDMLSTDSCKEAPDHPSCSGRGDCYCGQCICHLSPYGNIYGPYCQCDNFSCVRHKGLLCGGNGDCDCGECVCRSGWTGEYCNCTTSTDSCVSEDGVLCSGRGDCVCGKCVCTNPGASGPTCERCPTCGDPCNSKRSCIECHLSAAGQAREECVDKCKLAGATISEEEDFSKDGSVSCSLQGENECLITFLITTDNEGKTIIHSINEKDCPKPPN
Method in brief: as §1

[3] = target: human integrin αVβ8 (Homo sapiens, UniProt P06756+P26012); assay: as above; conditions: values given as ranges
Sequence of human integrin αVβ8 (P06756 31-992 limits assumed): as the sequence (P06756 31-992 limits assumed) above
Sequence of human integrin αVβ8 (P26012 43-684 limits assumed): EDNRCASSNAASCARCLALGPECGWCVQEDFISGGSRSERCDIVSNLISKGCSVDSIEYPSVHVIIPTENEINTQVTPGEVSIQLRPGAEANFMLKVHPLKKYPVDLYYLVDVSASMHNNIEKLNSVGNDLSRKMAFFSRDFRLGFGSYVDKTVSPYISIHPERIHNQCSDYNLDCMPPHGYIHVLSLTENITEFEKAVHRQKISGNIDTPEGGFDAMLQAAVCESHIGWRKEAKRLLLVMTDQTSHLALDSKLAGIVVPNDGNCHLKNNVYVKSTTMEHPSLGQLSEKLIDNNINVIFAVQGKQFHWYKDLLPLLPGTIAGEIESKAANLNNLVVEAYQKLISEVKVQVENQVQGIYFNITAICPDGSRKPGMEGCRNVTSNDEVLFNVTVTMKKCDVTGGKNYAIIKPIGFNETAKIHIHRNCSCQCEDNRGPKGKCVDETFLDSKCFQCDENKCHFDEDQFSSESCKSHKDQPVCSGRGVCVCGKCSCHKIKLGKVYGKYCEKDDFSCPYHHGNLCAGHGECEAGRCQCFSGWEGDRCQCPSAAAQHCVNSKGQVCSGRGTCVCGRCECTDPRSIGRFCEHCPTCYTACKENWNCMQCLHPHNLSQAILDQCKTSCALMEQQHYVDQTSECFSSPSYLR
Method in brief: as §1

[4] = tested on: primary human cancer associated fibroblasts (CAFs); assay: CAF adhesion to TGFβ latency-associated peptide (LAP), high-content imaging; format: cell-based
Experimental: Integrin αVβ1 is expressed in multiple solid tumors and drives the adhesion of cancer-associated fibroblasts (CAFs) to latent TGFβ. In human tumor tissues and in CAFs, αVβ1 protein expression was evaluated via immunohistochemistry (IHC) and custom […] assay, respectively. CAF adhesion to the TGFβ latency-associated peptide (LAP) was quantified in the presence or absence of Compound 39 in vitro by high-content microscopy imaging. The activity of Compound 39 in combination with anti-mPD-1 on fibrotic markers was evaluated in the EMT6 tumor model in vivo by gene expression analysis using the Nanostring® nCounter analysis system. Compound 39-treated human breast tumor tissue was analyzed for fibrotic marker α-smooth muscle actin (αSMA) using immunofluorescence.
αvβ1 protein expression was evaluated in human tumor tissues via immunohistochemistry. αvβ1 protein levels in primary human CAFs isolated from pancreatic carcinoma, lung adenocarcinoma, and lung squamous cell carcinoma were quantified via custom electrochemiluminescence assay. CAF adhesion to latency associated peptide (LAP), the integrin-binding region of latent TGF-β, was quantified in the presence or absence of Compound 39 of the examples and a small molecule selective inhibitor of αvβ1 by high-content imaging in vitro. […]

[5] = tested on: human breast and melanoma tumor tissues; assay: Ex vivo cultured human breast and melanoma tumor tissues (Example B9); format: cell-based
Experimental: Inhibition of αvβ1 and TGF-β mediated by Compound 39 of the examples was monitored via cell adhesion assays and transcriptomic analyses. αvβ1 protein expression was evaluated on human tumor tissues via immunohistochemistry using an indigenously developed anti-αvβ1 antibody. Efficacy of Compound 39 monotherapy and in combination with ICB was evaluated in syngeneic mouse models bearing EMT6 and Pan02 tumors. Animal survival, tumor growth, transcriptomic analyses, tissue fibrosis, and TILs were monitored along with circulating lymphocytes and cytokines. Tissue and circulating biomarkers of response to Compound 39 were identified. Human breast and melanoma tumor tissues were cultured ex vivo and Compound 39 activity was assessed by measuring CD8+ cytotoxic T cells and tumor apoptosis.

[6] = tested on: TKCC-05 tumors; assay: Orthotopic TKCC-05 (PDX-05) PDX model of PDAC (Example B12); format: in vivo, NSG mice; conditions: FIG. 26B
Experimental: Table B-9 depicts the study design to determine the efficacy of selective αvβ1/αvβ8 SMI in the orthotopic ECM-high PDX models of PDAC. Table B-10 depicts the study design for the TKCC-10 PDX model.
Table B-11 depicts the study design for the TKCC-05 model.
TKCC-05 cells were inoculated in the pancreas of […] mice and were allowed to grow into tumors for 1 week. The mice were then treated according to schema outlined in […], and FIG. 26A, which depicts a schematic diagram of the treatment regimen in the TKCC-05 PDAC PDX model for this study. FIG. 26B depicts a graph associated with the quantification of tumor weights in mice treated with Compound 39, Reference compound B, and ADWA-11 Ab for the study associated with Example B12. FIG. 26C depicts a graph associated with the quantification of tumor weights in mice treated with G/A, Compound 39+G/A, Reference compound B+G/A, and ADWA-11+G/A for the study associated with Example B12. P values by one-way ANOVA.

Cc1ncnc(Cl)c1C1(C(=O)N[C@@H](CCOCCCCc2ccc3c(n2)NCCC3)C(=O)O)CC1 [Compound 39, N-(1-(4-chloro-6-methylpyrimidin-5-yl)cyclopropane-1-carbonyl)-O-(4-(5,6,7,8-tetrahydro-1,8-naphthyridin-2-yl)butyl)-L-homoserine]
IC50 [1]: < 50 nM | IC50 [2]: ≥ 500 nM | IC50 [3]: < 50 nM | adhesion of CAFs to LAP ([4]; LUAD, LUSC and pancreatic stellate CAFs, FIG. 103-105): inhibits the adhesion of LUAD, LUSC, and PSC CAFs to TGFβ latency-associated peptide in a dose-dependent manner; also recorded: blocked the binding of CAFs to LAP; also recorded: significantly block in vitro binding of primary human CAFs to LAP | binding of latency associated peptide (LAP) to αvβ1 ([4]; cell adhesion assays): prevented | cytotoxic CD8^+ T cells [5]: significant increase in cytotoxic CD8^+T cells | fibrotic markers [5]: reduction in fibrotic markers | mean tumor weight ([6]; 30 days treatment): 0.23 ± 0.08 g and 0.228 ± 0.06 g | tumor weight / tumor growth ([6]; in words, 26C): significantly blocks tumor growth
